Assay results reported in the NIST ThermoML archive (doi:10.1021/je700026d).

Legend:
[1] = Liquid; for speed of sound: 100 kPa, Linear variable-path acoustic interferometer; for viscosity / mass density: 101.3 kPa; for viscosity: Capillary tube (Ostwald / Ubbelohde) method; for mass density: Pycnometric method
[2] = xn = mol fraction of the nth substance listed; conditions: Liquid; for speed of sound: 100 kPa, Linear variable-path acoustic interferometer; for viscosity: Capillary tube (Ostwald / Ubbelohde) method; for mass density: Pycnometric method

COCCOC [1,2-dimethoxyethane]
[1]
Conditions	mass density [kg/m3]	speed of sound [m/s]	viscosity [mPa·s]
298.15 K	861.5	1146.2	0.409
308.15 K	850.7	–	0.366
318.15 K	839.6	–	0.33

COCCO [2-methoxyethan-1-ol]
[1]
Conditions	mass density [kg/m3]	speed of sound [m/s]	viscosity [mPa·s]
298.15 K	959.7	1339.4	1.543
308.15 K	951.5	–	1.257
318.15 K	945.9	–	1.051

COCCO [2-methoxyethan-1-ol] + NC=O
Conditions	speed of sound [m/s]
[2], 298.15 K, x2 = 0	1339.4

[2], 101.3 kPa, x2 = 0
Conditions	mass density [kg/m3]	viscosity [mPa·s]
298.15 K	959.7	1.543
308.15 K	951.5	1.257
318.15 K	945.9	1.051

CC#N [acetonitrile]
[1]
Conditions	mass density [kg/m3]	speed of sound [m/s]	viscosity [mPa·s]
298.15 K	776	1260.2	0.344
308.15 K	766.3	–	0.313
318.15 K	755	–	0.289

CC#N [acetonitrile] + NC=O
Conditions	speed of sound [m/s]
[2], 298.15 K, x2 = 0	1260.2

[2], 101.3 kPa, x2 = 0
Conditions	mass density [kg/m3]	viscosity [mPa·s]
298.15 K	776	0.344
308.15 K	766.3	0.313
318.15 K	755	0.289

CC(=O)c1ccccc1 [acetophenone]
[1]
Conditions	mass density [kg/m3]	speed of sound [m/s]	viscosity [mPa·s]
298.15 K	1023.1	1296.4	1.653
308.15 K	1014.8	–	1.412
318.15 K	1007.5	–	1.117

C[S+](C)[O-] [dimethyl sulfoxide]
[1]
Conditions	mass density [kg/m3]	speed of sound [m/s]	viscosity [mPa·s]
298.15 K	1095.4	1493	2.042
308.15 K	1085.9	–	1.568
318.15 K	1076.9	–	1.485

C[S+](C)[O-] [dimethyl sulfoxide] + NC=O
Conditions	speed of sound [m/s]
[2], 298.15 K, x2 = 0	1493

[2], 101.3 kPa, x2 = 0
Conditions	mass density [kg/m3]	viscosity [mPa·s]
298.15 K	1095.4	2.042
308.15 K	1085.9	1.568
318.15 K	1076.9	1.485

NC=O [formamide]
[1]
Conditions	mass density [kg/m3]	speed of sound [m/s]	viscosity [mPa·s]
298.15 K	1129.2	1591.3	3.302
308.15 K	1120.5	–	2.542
318.15 K	1111.1	–	2.001

NC=O [formamide] + CC(=O)c1ccccc1
Conditions	speed of sound [m/s]
[2], 298.15 K, x1 = 1	1591.3

[2], 101.3 kPa, x1 = 1
Conditions	mass density [kg/m3]	viscosity [mPa·s]
298.15 K	1129.2	3.302
308.15 K	1120.5	2.542
318.15 K	1111.1	2.001

NC=O [formamide] + COCCOC
Conditions	speed of sound [m/s]
[2], 298.15 K, x1 = 1	1591.3

[2], x1 = 1
Conditions	mass density, 298.15 K [kg/m3]	mass density, 308.15 K [kg/m3]	mass density, 318.15 K [kg/m3]	viscosity, 298.15 K [mPa·s]	viscosity, 308.15 K [mPa·s]	viscosity, 318.15 K [mPa·s]
101 kPa	1129.2	1120.5	1111.1	–	–	–
101.3 kPa	–	–	–	3.302	2.542	2.001
